Test results: ChEMBL document CHEMBL1764998, “Structures, synthesis, and human Nod1 stimulation of immunostimulatory bacterial peptidoglycan fragments in the environment” (J Nat Prod, 2011)
Calls of active or inactive are those of the source. The calls are words filed in the database; no cut-off is given here.

How the values were obtained:
Type in all cases: cell-based
Settings in all cases: HEK-293T
[1] = biological target: T1, Nucleotide-binding oligomerization domain-containing protein 1 (Homo sapiens) (UniProt Q9Y239); assay: Induction of human NOD1 activity expressed in HEK293T cells assessed as NFKB activation at 1 to 100 ng/ml by luciferase reporter assay
T1 sequence (whole entry): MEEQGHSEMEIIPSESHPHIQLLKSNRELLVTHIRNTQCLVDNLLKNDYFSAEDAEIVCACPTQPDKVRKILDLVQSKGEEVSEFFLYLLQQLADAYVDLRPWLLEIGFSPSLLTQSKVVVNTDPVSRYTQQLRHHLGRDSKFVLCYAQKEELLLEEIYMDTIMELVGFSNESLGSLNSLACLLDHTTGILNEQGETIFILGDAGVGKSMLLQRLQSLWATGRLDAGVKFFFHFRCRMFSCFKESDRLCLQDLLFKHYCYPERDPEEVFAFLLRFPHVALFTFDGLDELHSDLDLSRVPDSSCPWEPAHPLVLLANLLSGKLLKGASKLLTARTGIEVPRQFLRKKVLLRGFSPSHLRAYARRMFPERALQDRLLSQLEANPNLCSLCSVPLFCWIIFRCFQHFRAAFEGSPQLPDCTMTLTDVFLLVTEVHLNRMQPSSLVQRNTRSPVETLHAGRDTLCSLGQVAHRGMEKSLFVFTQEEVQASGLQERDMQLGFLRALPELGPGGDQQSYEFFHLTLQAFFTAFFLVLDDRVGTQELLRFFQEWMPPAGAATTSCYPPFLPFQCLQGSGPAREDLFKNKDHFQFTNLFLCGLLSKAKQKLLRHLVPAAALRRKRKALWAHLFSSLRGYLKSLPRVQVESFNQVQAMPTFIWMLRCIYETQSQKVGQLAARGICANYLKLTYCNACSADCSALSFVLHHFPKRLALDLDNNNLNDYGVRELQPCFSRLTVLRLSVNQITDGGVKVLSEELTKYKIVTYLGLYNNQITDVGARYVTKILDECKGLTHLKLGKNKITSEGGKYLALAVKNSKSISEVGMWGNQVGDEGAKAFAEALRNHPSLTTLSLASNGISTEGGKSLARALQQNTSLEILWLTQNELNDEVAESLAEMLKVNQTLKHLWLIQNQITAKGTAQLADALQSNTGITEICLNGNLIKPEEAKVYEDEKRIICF

[2] = biological target: T1, Nucleotide-binding oligomerization domain-containing protein 1 (Homo sapiens); assay: Induction of human NOD1 activity expressed in HEK293T cells assessed as NFKB activation at 5 mM
[3] = biological target: T1, Nucleotide-binding oligomerization domain-containing protein 1 (Homo sapiens); assay: Induction of human NOD1 activity expressed in HEK293T cells assessed as NFKB activation at 0.1 to 1000 ng/ml by luciferase reporter assay

Structure (SMILES)	Activity [1]	Activity [2]	Activity [3]
CC(=O)N[C@H]1[C@H](O[C@H]2[C@H](OC(C)C(=O)N[C@@H](C)C(=O)N[C@H](CCC(=O)N[C@@H](CCC[C@@H](N)C(=O)O)C(=O)O)C(=O)O)[C@@H](NC(C)=O)[C@@H]3OC[C@H]2O3)O[C@H](CO)[C@@H](O)[C@@H]1O (stereo partly specified)	Active		
CC(=O)N[C@@H]1[C@@H](OC(C)C(=O)N[C@@H](C)C(=O)N[C@H](CCC(=O)N[C@@H](CCC[C@@H](N)C(=O)O)C(=O)O)C(=O)O)[C@H](O)[C@@H](CO)O[C@H]1O (stereo partly specified)		Active	Active
C[C@H](N)C(=O)N[C@H](CCC(=O)N[C@@H](CCC[C@@H](N)C(=O)O)C(=O)O)C(=O)O	Active		

Second part, the molecule after the results:

Activity [1]	Activity [2]	Activity [3]	Structure (SMILES)
		Active	CC(=O)N[C@@H]1[C@@H](OC(C)C(=O)N[C@@H](C)C(=O)N[C@H](CCC(=O)N[C@@H](CCC[C@@H](N)C(=O)O)C(=O)O)C(=O)O)[C@H](O[C@@H]2O[C@H](CO)[C@@H](O)[C@H](O)[C@H]2NC(C)=O)[C@@H](CO)O[C@H]1O (stereo partly specified)
Active			N[C@H](CCC[C@H](NC(=O)CC[C@@H](N)C(=O)O)C(=O)O)C(=O)O
